# Test results: article PMC4734766, “Pentamidine Is Not a Permeant but a Nanomolar Inhibitor of the Trypanosoma brucei Aquaglyceroporin-2” (PLoS Pathogens, 2016)
# Numbering of substitutions follows the chain as printed. Where two headings read alike, the source gives them in different places.
# What was measured:
# TbAQP2 Asp265Ala = TbAQP2 Asp265Ala (Trypanosoma brucei brucei, UniProt Q6ZXT3, D265A); assay: cell-based; details: read-out: IC50, pentamidine inhibition of TbAQP2 Asp265Ala
# TbAQP2 Leu264Arg = molecular target: T1, TbAQP2 Leu264Arg (Trypanosoma brucei brucei, UniProt Q6ZXT3, L264R); format: cell-based
# T1 sequence (Q6ZXT3 1-312 L264R): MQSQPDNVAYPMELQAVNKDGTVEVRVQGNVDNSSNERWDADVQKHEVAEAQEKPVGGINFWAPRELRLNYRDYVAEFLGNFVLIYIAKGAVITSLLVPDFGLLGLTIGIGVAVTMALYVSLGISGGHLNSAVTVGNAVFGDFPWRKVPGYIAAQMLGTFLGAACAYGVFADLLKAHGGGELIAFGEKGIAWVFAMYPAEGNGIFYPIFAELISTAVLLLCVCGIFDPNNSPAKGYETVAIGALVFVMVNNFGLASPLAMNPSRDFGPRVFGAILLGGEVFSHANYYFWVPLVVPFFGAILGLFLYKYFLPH
# TbAQP2 = molecular target: T2, TbAQP2 (Trypanosoma brucei brucei, UniProt Q6ZXT3)
# T2 sequence (Q6ZXT3 1-312): T1 sequence (Q6ZXT3 1-312 L264R) with R264L
smiles,measurement,setting,value
N=C(N)c1ccc(OCCCCCOc2ccc(C(=N)N)cc2)cc1 [pentamidine],IC50,TbAQP2 Asp265Ala; pH 2.5,5.8 µM
same,IC50,TbAQP2 Asp265Ala; pH 7.2,4.5 µM
same,inhibition of TbAQP2 Leu264Arg,TbAQP2 Leu264Arg,failed to inhibit
N=CN [formamidine],permeability of TbAQP2 for small cations,TbAQP2; not told,impermeable
"NCC(O)CO (centres unmarked) [3-aminopropane-1,2-diol]",rate of passage through TbAQP2 relative to glycerol,TbAQP2; pH 9.2,two thirds the rate of glycerol
